From patent US20220324835A1 (Nurix Therapeutics, Inc., priority 2018, published 2022)

Assays:
Cbl-b [1] = target: T1, Cbl-b (Homo sapiens, UniProt Q13191); test: Cbl-b inhibition assay (Cbl-b activity assay, FRET, Biological Example 1; 100 mM NaCl, 60 nM Src kinase); type: biochemical; details: upper bound stated in text lists; read-out: IC50 values in the Cbl-b inhibition assay of Biological Example 1
Outline: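 TR-FRET assay using N-terminal biotinylated Avi-tagged Cbl-b bound to streptavidin-terbium, Src kinase for Cbl-b phosphorylation, and UbcH5B irreversibly conjugated to Bodipy-Fluorescein-ubiquitin. Phosphorylated Cbl-b binds UbcH5B-Ub, bringing the fluorophores together; inhibition is read as loss of FRET signal.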

T-cell [2] = test: CD25 cell surface staining on T-cells co-stimulated with anti-CD3 and anti-CD28 antibody (Biological Example 2); type: cell-based, human; details: Homo sapiens, T-cell, fold change over baseline (anti-CD3/anti-CD28 stimulated T-cells without inhibitor), read-out: CD25 staining Anti-CD3/Anti-CD28 stimulation; for fold induction at 0.3 µM: 0.3 μM Cbl-b inhibitor; for fold induction at 1 µM: 1 μM Cbl-b inhibitor
Outline: (§1)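 T-cells were stimulated with anti-CD3 antibody alone or with anti-CD28 antibody, in the presence or absence of Cbl-b inhibitor. IL-2 secretion or CD25 surface staining was measured, and values expressed as fold over the uninhibited baseline […].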

T-cell [3] = test: IL-2 secretion from T-cells co-stimulated with anti-CD3 and anti-CD28 antibody (Biological Example 2); type: cell-based, human; details: Homo sapiens, T-cell, fold change over baseline (anti-CD3/anti-CD28 stimulated T-cells without inhibitor), read-out: IL-2 secretion Anti-CD3/Anti-CD28 stimulation; for fold induction at 0.3 µM: 0.3 μM Cbl-b inhibitor; for fold induction at 1 µM: 1 μM Cbl-b inhibitor
Outline: as §1

Cbl-b [4] = target: T1, Cbl-b; test: Cbl-b activity assay (Cbl-b inhibition assay), TR-FRET of Cbl-b interaction with UbcH5B-Ub; type: biochemical; details: assay buffer with 100 mM NaCl, 60 nM Src kinase; read-out: Cbl-b activity IC50
Outline: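 UbcH5B (C85K) conjugated to N-terminally Bodipy-Fluorescein-labeled ubiquitin served as the fluorescent partner. After compound preincubation, Src kinase (60 nM) with 1 mM ATP and 5 mM MgCl2 (final) was added for 1.5 h, followed by a further 1 h incubation. Some values were obtained with 50 mM NaCl and 30 nM Src.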

T-cell [5] = test: CD25 cell surface staining on T-cells stimulated with anti-CD3 antibody alone (Biological Example 2); type: cell-based, human; details: Homo sapiens, T-cell; 1 μM Cbl-b inhibitor; fold change over baseline (anti-CD3/anti-CD28 stimulated T-cells without inhibitor); read-out: CD25 staining Anti-CD3 stimulation
T-cell [6] = test: IL-2 secretion from T-cells stimulated with anti-CD3 antibody alone (Biological Example 2); type: cell-based, human; details: Homo sapiens, T-cell; 1 μM Cbl-b inhibitor; fold change over baseline (anti-CD3/anti-CD28 stimulated T-cells without inhibitor); read-out: IL-2 secretion Anti-CD3 stimulation

T1 sequence (Q13191 36-427): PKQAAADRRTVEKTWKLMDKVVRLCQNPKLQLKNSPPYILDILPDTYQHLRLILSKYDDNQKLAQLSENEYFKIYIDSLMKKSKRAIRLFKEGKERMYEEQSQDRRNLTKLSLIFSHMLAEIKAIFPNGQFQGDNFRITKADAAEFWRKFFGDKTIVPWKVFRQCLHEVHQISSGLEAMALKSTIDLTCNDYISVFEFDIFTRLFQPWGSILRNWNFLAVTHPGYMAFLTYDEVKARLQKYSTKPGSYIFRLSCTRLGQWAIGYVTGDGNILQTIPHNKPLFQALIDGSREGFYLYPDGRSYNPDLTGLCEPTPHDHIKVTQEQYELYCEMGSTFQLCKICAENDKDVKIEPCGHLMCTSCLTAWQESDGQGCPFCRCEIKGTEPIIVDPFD

Compound | IC50 (Cbl-b [1]) [nM] | fold induction at 0.3 µM (T-cell [2]) | fold induction at 1 µM (T-cell [2]) | fold induction at 0.3 µM (T-cell [3]) | fold induction at 1 µM (T-cell [3]) | IC50 (Cbl-b [4]) [nM] | fold induction at 1 µM (T-cell [5]) | fold induction at 1 µM (T-cell [6])
CC1CN(c2cc3c(c(C(F)(F)F)c2)CN(c2cccc(C4(Cc5nncn5C)COC4)c2)C3=O)C1 [Example 607, 2-(3-(3-((4-methyl-4H-1,2,4-triazol-3-yl)methyl)oxetan-3-yl)phenyl)-6-(3-methylazetidin-1-yl)-4-(trifluoromethyl)isoindolin-1-one] | ≤ 100 | 1.01 to 1.3 | 1.01 to 1.3 | 1.01 to 2.5 | 2.51 to 5 | < 100 | 0.601 to 0.8 | 0.101 to 0.15
CC1CN(c2cc3c(c(C(F)(F)F)c2)CN(c2cccc(C4(Cc5nncn5C)COC4)c2)C3=O)C1C (stereo not drawn) [Example 608, 6-(2,3-dimethylazetidin-1-yl)-2-(3-(3-((4-methyl-4H-1,2,4-triazol-3-yl)methyl)oxetan-3-yl)phenyl)-4-(trifluoromethyl)isoindolin-1-one] | ≤ 100 | 1.01 to 1.3 | 1.01 to 1.3 | 1.01 to 2.5 | 2.51 to 5 | < 100 | 0.601 to 0.8 | 0.051 to 0.1
Cn1cnnc1CC1(c2cccc(N3Cc4c(cc(N5CC(C(F)F)C5)nc4C4CC4)C3=O)c2)COC1 [Example 609, 4-cyclopropyl-6-(3-(difluoromethyl)azetidin-1-yl)-2-(3-(3-((4-methyl-4H-1,2,4-triazol-3-yl)methyl)oxetan-3-yl)phenyl)-2,3-dihydro-1H-pyrrolo[3,4-c]pyridin-1-one] | ≤ 100 | 1.01 to 1.3 | 1.01 to 1.3 | 2.51 to 5 | 5 to 7.5 | < 100 | 0.801 to 1 | 0.101 to 0.15
Cn1cnnc1CC1(c2cccc(NC(=O)c3cc(N4CC(C(F)F)C4)nc(C4CC4)n3)c2)COC1 [Example 610, 2-cyclopropyl-6-(3-(difluoromethyl)azetidin-1-yl)-N-(3-(3-((4-methyl-4H-1,2,4-triazol-3-yl)methyl)oxetan-3-yl)phenyl)pyrimidine-4-carboxamide] | ≤ 100 | 1.01 to 1.3 | 1.01 to 1.3 | 2.51 to 5 | > 7.5 | < 100 | 0.801 to 1 | 0.101 to 0.15
Cn1cnnc1CC1(c2cccc(N3Cc4c(cc(C5CCC5)cc4C(F)(F)F)C3=O)c2)COC1 [Example 611, 6-cyclobutyl-2-(3-(3-((4-methyl-4H-1,2,4-triazol-3-yl)methyl)oxetan-3-yl)phenyl)-4-(trifluoromethyl)isoindolin-1-one] | ≤ 100 | 1.01 to 1.3 | 1.31 to 1.5 | 2.51 to 5 | 2.51 to 5 | < 100 | 0.801 to 1 | 0.101 to 0.15
Cn1cnnc1CC1(c2cccc(N3Cc4c(cc(C5=CCOC5)cc4C(F)(F)F)C3=O)c2)COC1 [Example 612, 6-(2,5-dihydrofuran-3-yl)-2-(3-(3-((4-methyl-4H-1,2,4-triazol-3-yl)methyl)oxetan-3-yl)phenyl)-4-(trifluoromethyl)isoindolin-1-one] | ≤ 100 | 1.01 to 1.3 | 1.31 to 1.5 | 2.51 to 5 | 2.51 to 5 | < 100 | 0.801 to 1 | 0.101 to 0.15
Cn1cnnc1CC1(c2cccc(N3Cc4c(cc(C5CCOC5)cc4C(F)(F)F)C3=O)c2)COC1 (stereo not drawn) [Example 613, 2-(3-(3-((4-methyl-4H-1,2,4-triazol-3-yl)methyl)oxetan-3-yl)phenyl)-6-(THF-3-yl)-4-(trifluoromethyl)isoindolin-1-one] | ≤ 100 | 1.01 to 1.3 | 1.01 to 1.3 | 2.51 to 5 | 5 to 7.5 | < 100 | 0.801 to 1 | 0.101 to 0.15
Cn1cnnc1CC1(c2cccc(N3Cc4c(cc(C5=CCCOC5)cc4C(F)(F)F)C3=O)c2)COC1 [Example 614] | ≤ 100 | 1.01 to 1.3 | 1.01 to 1.3 | 2.51 to 5 | 2.51 to 5 | < 100 | 0.801 to 1 | 0.101 to 0.15
Cn1cnnc1[C@@H](F)C1(c2cccc(N3Cc4c(cc(CN5CCC6(CC6)C5)cc4C(F)(F)F)C3=O)c2)COC1 [Example 618, (S)-6-((5-azaspiro[2.4]heptan-5-yl)methyl)-2-(3-(3-(fluoro(4-methyl-4H-1,2,4-triazol-3-yl)methyl)oxetan-3-yl)phenyl)-4-(trifluoromethyl)isoindolin-1-one] | ≤ 100 | 1.01 to 1.3 | 1.31 to 1.5 | 5 to 7.5 | > 7.5 | < 100 | > 1 | 0.101 to 0.15
Cn1cnnc1CC1(c2cccc(N3Cc4c(cc(CN5CC6CC5CO6)cc4C(F)(F)F)C3=O)c2)COC1 (stereo not drawn) [Example 619, 6-((2-oxa-5-azabicyclo[2.2.1]heptan-5-yl)methyl)-2-(3-(3-((4-methyl-4H-1,2,4-triazol-3-yl)methyl)oxetan-3-yl)phenyl)-4-(trifluoromethyl)isoindolin-1-one] | ≤ 100 | 1.01 to 1.3 | 1.01 to 1.3 | 2.51 to 5 | 5 to 7.5 | < 100 | 0.801 to 1 | 0.051 to 0.1
Cn1cnnc1CC1(c2cccc(N3Cc4c(cc(CN5CCC[C@@H](F)C5)cc4C(F)(F)F)C3=O)c2)COC1 [Example 623, (R)-6-((3-fluoropiperidin-1-yl)methyl)-2-(3-(3-((4-methyl-4H-1,2,4-triazol-3-yl)methyl)oxetan-3-yl)phenyl)-4-(trifluoromethyl)isoindolin-1-one] | ≤ 100 | 1.31 to 1.5 | 1.31 to 1.5 | > 7.5 | > 7.5 | < 100 | > 1 | > 0.201
CCN1CCN(Cc2cc3c(c(C(F)(F)F)c2)CN(c2cccc(C4(Cc5nncn5C)COC4)c2)C3=O)CC1 [Example 624, 6-((4-ethylpiperazin-1-yl)methyl)-2-(3-(3-((4-methyl-4H-1,2,4-triazol-3-yl)methyl)oxetan-3-yl)phenyl)-4-(trifluoromethyl)isoindolin-1-one] | ≤ 100 | 1.31 to 1.5 | 1.31 to 1.5 | 5 to 7.5 | > 7.5 | < 100 | > 1 | > 0.201
CN1CCN(Cc2cc3c(c(C(F)(F)F)c2)CN(c2cccc(C4(Cc5nncn5C)COC4)c2)C3=O)CC1 [Example 625, 2-(3-(3-((4-methyl-4H-1,2,4-triazol-3-yl)methyl)oxetan-3-yl)phenyl)-6-((4-methylpiperazin-1-yl)methyl)-4-(trifluoromethyl)isoindolin-1-one] | ≤ 100 | 1.31 to 1.5 | 1.31 to 1.5 | 2.51 to 5 | > 7.5 | < 100 | > 1 | > 0.201
Cn1cnnc1CC1(c2cccc(N3Cc4c(cc(CN5CCCCC(F)C5)cc4C(F)(F)F)C3=O)c2)COC1 (stereo not drawn) [Example 627, 6-((3-fluoroazepan-1-yl)methyl)-2-(3-(3-((4-methyl-4H-1,2,4-triazol-3-yl)methyl)oxetan-3-yl)phenyl)-4-(trifluoromethyl)isoindolin-1-one] | ≤ 100 | 1.31 to 1.5 | 1.31 to 1.5 | 5 to 7.5 | > 7.5 | < 100 | > 1 | > 0.201
Cn1cnnc1CC1(c2cccc(N3Cc4c(cc(CN5CCC(C#N)CC5)cc4C(F)(F)F)C3=O)c2)COC1 [Example 628, 1-((2-(3-(3-((4-methyl-4H-1,2,4-triazol-3-yl)methyl)oxetan-3-yl)phenyl)-3-oxo-7-(trifluoromethyl)isoindolin-5-yl)methyl)piperidine-4-carbonitrile] | ≤ 100 | 1.31 to 1.5 | 1.31 to 1.5 | 5 to 7.5 | > 7.5 | < 100 | > 1 | > 0.201
